Where two headings read alike, the source gives them in different places.
Assays:
[1] = molecular target: T1, Factor XIIa (Homo sapiens, UniProt P00748); experiment: Enzyme inhibition assay, chromogenic substrate S-2302
T1 sequence (P00748 373-615 limits assumed): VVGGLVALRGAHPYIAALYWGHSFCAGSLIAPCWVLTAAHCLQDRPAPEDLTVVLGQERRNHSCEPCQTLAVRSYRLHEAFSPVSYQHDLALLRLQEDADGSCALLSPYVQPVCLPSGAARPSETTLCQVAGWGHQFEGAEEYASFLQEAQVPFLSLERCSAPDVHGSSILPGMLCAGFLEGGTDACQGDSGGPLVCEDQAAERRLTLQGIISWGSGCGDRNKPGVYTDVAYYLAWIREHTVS
T1 sequence (P00748 20-372 partner limits assumed): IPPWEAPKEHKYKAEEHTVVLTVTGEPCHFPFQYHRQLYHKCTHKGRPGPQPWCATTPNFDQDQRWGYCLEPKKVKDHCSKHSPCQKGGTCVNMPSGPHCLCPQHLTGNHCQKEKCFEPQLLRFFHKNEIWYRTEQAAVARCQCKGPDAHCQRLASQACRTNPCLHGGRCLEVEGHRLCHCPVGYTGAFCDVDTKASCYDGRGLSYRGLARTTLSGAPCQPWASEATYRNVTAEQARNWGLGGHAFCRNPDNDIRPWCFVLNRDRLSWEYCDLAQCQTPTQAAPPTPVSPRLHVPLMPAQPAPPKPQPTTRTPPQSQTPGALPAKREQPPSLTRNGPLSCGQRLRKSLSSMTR

[2] = molecular target: aPC (Homo sapiens, UniProt P04070); experiment: Enzyme inhibition assay, chromogenic substrate S-2366
Chain of aPC (P04070 212-450 limits assumed): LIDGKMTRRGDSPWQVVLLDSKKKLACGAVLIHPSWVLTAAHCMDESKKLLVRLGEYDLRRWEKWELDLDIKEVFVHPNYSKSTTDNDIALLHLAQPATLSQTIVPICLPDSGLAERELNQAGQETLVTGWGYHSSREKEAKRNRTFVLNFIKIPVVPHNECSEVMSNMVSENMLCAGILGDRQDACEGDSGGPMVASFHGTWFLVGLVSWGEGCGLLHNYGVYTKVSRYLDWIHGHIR
Chain of aPC (P04070 43-197 partner limits assumed): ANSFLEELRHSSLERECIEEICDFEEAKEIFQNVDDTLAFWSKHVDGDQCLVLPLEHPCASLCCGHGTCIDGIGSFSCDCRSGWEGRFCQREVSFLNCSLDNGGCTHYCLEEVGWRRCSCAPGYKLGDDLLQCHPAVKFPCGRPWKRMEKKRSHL

[3] = molecular target: Factor VIIa (Homo sapiens, UniProt P08709); experiment: Enzyme inhibition assay, chromogenic substrate S-2238
Chain of Factor VIIa (P08709 213-466 limits assumed): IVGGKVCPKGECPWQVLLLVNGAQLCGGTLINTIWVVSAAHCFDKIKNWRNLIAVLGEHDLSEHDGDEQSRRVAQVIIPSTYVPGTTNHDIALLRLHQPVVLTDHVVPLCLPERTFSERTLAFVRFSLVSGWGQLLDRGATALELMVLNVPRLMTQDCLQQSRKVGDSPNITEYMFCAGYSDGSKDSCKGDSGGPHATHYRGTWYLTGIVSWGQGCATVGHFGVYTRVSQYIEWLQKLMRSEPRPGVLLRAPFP
Chain of Factor VIIa (P08709 61-212 partner limits assumed): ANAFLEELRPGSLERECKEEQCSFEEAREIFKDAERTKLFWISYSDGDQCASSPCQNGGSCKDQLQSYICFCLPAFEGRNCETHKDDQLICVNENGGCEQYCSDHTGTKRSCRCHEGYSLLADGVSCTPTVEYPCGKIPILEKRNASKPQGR
Chain of Factor VIIa (P13726 33-295 partner): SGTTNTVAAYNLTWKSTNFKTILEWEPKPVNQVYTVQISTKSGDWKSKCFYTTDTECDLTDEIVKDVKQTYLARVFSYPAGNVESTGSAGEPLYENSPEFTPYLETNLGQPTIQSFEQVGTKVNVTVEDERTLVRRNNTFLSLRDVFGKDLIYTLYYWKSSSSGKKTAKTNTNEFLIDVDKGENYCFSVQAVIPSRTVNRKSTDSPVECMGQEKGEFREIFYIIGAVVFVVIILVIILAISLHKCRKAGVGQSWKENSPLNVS

[4] = molecular target: Trypsin; experiment: Enzyme inhibition assay, chromogenic substrate S-2765; type: biochemical; conditions: 10 min preincubation, 3 nM enzyme
Protocol: Final reaction volumes were 100 μL.
For FXIIa, the buffer also contained 50 mM imidazole. […] The buffer for FIXa (50 nM final concentration) was 50 mM Tris, 100 mM NaCl, 5 mM CaCl2, and 30% ethylene glycol.

[5] = system: clotting of human platelet-poor plasma; experiment: Activated partial thromboplastin time (aPTT) clotting assay; type: biochemical; conditions: 37°C
Protocol: (§1) Both PT and aPTT assays were performed as recommended by the vendor (Diagnostica Stago). Briefly, citrated normal pooled human platelet-poor plasma was mixed with test compound (2% DMSO) at 37°C. Subsequently, either the aPTT assay reagent or PT assay reagent was added and mixed thoroughly. CaCl2 was then added to trigger the clotting process. The time for clot formation was measured in seconds and the test compound concentration to double the clotting time (CT2x) was determined.

[6] = system: clotting of human platelet-poor plasma; conditions: 37°C
Protocol: as §1

[7] = molecular target: T2, Factor Xa (Homo sapiens, UniProt P00742); experiment: Enzyme inhibition assay, chromogenic substrate S-2765
T2 sequence (P00742 235-488 limits assumed): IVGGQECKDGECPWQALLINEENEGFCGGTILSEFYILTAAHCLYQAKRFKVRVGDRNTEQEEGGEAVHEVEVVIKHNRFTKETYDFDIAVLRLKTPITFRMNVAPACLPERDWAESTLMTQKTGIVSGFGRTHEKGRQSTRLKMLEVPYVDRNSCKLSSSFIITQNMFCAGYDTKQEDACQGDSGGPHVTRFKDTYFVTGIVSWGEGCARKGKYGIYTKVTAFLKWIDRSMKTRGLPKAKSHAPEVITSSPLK
T2 sequence (P00742 41-179 partner limits assumed): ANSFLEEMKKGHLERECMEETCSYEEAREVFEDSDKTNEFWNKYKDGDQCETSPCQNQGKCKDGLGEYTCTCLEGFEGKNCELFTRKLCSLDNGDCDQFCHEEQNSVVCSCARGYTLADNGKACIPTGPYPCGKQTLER

[8] = molecular target: T3, Plasmin (Homo sapiens, UniProt P00747); experiment: Enzyme inhibition assay, chromogenic substrate S-2251
T3 sequence (P00747 581-810 limits assumed, species assumed): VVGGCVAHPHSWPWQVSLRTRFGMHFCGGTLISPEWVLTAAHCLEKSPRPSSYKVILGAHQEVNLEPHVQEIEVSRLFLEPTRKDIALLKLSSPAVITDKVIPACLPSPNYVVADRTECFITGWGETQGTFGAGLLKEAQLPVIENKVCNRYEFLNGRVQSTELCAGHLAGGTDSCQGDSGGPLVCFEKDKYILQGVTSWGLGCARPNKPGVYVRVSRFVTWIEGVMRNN
T3 sequence (P00747 97-580 partner limits assumed, species assumed): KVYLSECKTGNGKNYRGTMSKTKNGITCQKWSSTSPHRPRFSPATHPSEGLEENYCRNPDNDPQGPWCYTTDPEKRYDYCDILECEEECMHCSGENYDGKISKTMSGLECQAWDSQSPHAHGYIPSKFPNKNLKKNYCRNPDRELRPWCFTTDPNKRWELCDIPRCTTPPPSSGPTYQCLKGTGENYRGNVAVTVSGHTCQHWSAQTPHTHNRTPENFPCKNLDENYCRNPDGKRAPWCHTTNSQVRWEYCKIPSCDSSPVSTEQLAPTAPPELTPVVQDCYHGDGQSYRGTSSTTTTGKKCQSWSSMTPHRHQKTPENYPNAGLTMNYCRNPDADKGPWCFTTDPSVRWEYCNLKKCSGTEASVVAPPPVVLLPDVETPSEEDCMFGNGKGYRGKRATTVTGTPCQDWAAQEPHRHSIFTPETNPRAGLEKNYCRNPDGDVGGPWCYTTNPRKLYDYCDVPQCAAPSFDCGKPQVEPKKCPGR

[9] = system: thrombin generation in human platelet-poor plasma; experiment: Thrombin generation assay (TGA); type: biochemical; conditions: 70% human platelet-poor plasma, 37°C
Protocol: The assay was performed with human platelet-poor plasma (70% final concentration) in buffer containing 20 mM HEPES (pH 7.4), 150 mM NaCl, and compound in DMSO (4% final concentration). The assay also contained phospholipids (approx. 3 μM) and Dade Innovin (1/5000 final dilution of stock). The reaction was triggered by the addition of a solution containing substrate (Z-GGR-AMC, 0.5 mM final concentration) and CaCl2 (15 mM final concentration). The reaction was then monitored kinetically by fluorescence (excitation 380 nm, emission 460 nm) at 37°C for 90 min.

[10] = molecular target: T4, Factor XIa (Homo sapiens, UniProt P03951); experiment: Enzyme inhibition assay, chromogenic substrate S-2366
T4 sequence (P03951 388-625 limits assumed): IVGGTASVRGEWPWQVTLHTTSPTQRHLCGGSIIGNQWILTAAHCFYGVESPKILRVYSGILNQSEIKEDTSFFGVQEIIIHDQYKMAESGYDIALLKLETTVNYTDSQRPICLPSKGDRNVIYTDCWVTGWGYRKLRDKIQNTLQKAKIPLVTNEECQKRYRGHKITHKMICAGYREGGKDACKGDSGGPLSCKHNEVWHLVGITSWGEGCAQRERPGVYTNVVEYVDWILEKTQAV
T4 sequence (P03951 19-387 partner limits assumed): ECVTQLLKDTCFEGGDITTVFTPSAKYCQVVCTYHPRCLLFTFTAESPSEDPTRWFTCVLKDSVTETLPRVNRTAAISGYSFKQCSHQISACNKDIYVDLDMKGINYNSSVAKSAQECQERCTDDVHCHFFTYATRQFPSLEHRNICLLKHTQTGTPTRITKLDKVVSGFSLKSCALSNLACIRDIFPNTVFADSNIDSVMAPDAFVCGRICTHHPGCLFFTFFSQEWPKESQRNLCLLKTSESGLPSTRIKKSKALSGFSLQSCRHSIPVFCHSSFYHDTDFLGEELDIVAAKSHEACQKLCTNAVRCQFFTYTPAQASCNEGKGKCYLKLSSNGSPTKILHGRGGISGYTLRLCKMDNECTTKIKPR

[11] = molecular target: Factor IXa (Homo sapiens, UniProt P00740); experiment: Enzyme inhibition assay, substrate Spectrozyme
Chain of Factor IXa (P00740 227-461 limits assumed): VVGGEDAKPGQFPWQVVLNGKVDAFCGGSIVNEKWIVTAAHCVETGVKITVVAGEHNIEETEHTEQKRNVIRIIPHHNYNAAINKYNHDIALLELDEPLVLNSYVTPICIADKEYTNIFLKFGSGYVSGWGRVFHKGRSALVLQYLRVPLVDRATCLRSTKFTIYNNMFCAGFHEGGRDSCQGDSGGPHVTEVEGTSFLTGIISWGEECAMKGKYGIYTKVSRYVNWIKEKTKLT
Chain of Factor IXa (P00740 47-191 partner limits assumed): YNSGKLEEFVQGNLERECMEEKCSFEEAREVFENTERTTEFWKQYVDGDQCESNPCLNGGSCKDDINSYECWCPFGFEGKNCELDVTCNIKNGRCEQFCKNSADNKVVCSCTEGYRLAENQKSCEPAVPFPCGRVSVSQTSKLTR

[12] = Pharmacokinetics (PK) in CD-1 mice; conditions: male, CD-1, mouse, plasma, iv, 0.5 mg/kg
Protocol: The test compound was injected intravenously (i.v.) into CD-1 mice at 0.5 mg/kg in formulation containing 5% DMA (dimethyl acetamide) 15% Solutol HS15 and 80% water. Animals were euthanized at predefined time points by CO2 inhalation and blood was collected in K2-EDTA vacutainers by cardiac puncture. The vials were then centrifuged to collect plasma. […] LC-MS was performed using a Luna Omega 1.6 μm Polar C18 (Phenomenex) column, a Shimadzu Nexera UHPLC, and a Sciex QTrap 5500 mass spectrometer. The PK parameters were calculated by non-compartmental analysis using Phoenix WinNonlin (Certara).

[13] = molecular target: T2, Factor Xa; experiment: Progress curve kinetics experiments; type: biochemical; parameters: purchased Haemtech Biopharma Services
Protocol: (§3) The data for the initial time points, up to at least 65% reaction progress, were analyzed as described in Wakselman et al. [20].

[14] = Liver microsome (LM) stability assay; type: in vitro ADME; conditions: liver microsomes, NADPH, n = 2, read-out: LM stability t½
Protocol: Compound at 1 μM (0.5% final DMSO concentration) was incubated with a 0.5 mg/mL CD-1 mouse (Sigma), SD rat (Life Technologies), or human liver microsome (Life Technologies) in the presence of 1 mM NADPH at 37°C for up to one hour. Aliquots were taken out at different time points and quenched in acetonitrile containing diclofenac (internal standard). […] Verapamil was used as a positive control, and warfarin was used as a negative control.

[15] = molecular target: T4, Factor XIa; experiment: Progress curve kinetics experiments; type: biochemical
Protocol: as §3

[16] = molecular target: T3, Plasmin; experiment: Progress curve kinetics experiments; type: biochemical; parameters: purchased Haemtech Biopharma Services
Protocol: The data for the initial time points, up to at least 65% reaction progress, were analyzed as described in Wakselman et al..
Thus, when fitting to Eq (3), the extracted values kobs for each well were plotted against the modified inhibitor concentration [I]′0=(1−α)[I]0. (6)
For the experiments presented in this paper, n = 2 and the mean and standard deviation are reported for each parameter.

[17] = Plasma stability assay; type: in vitro ADME; conditions: 37°C, n = 2, read-out: Plasma stability t½
Protocol: The compound at 20 μM (2% final DMSO concentration) was incubated with CD-1 mouse (Innovative Research), SD rat (Innovative research), or human plasma (George King BioMed) at 37°C for up to three hours. Aliquots were taken out at different time points and quenched in acetonitrile containing diclofenac (internal standard). The samples were then centrifuged and the supernatant was analyzed by UHPLC using a Kinetex 2.6 μm C18 (Phenomenex) column and a Shimadzu Nexera UHPLC. Verapamil was used as a positive control.

[18] = Control sample in buffer in the absence of thrombin; conditions: 50 mM Tris pH 7.4, 100 mM NaCl, 0.2% PEG 8000, up to overnight
Protocol: The reaction was then quenched with acetonitrile and centrifuged at 4°C, 1000x RCF, for 10 min to pellet the protein. […] Quantification of the compounds was performed by LC-MS using a Shimadzu Nexera X2 UPLC system coupled with a Sciex QTrap 5500. Chromatography was performed on a LunaOmega Polar C18 analytical column (1.6 μm, 50 x 2.1 mm). The mobile phases were 0.025% formic acid in water and 0.025% formic acid in acetonitrile.

[19] = molecular target: thrombin (Homo sapiens, UniProt P00734); experiment: Enzyme inhibition assay, chromogenic substrate S-2238
[20] = molecular target: T5, WT human α-thrombin (Homo sapiens, UniProt P00734); experiment: Binding of a dansyl probe to thrombin (tryptophan fluorescence); conditions: 1 μM compound, 80 nM thrombin, excitation 280 nm, emission 340 nm
T5 construct: made in house; host or cells: E. coli
Protocol: (§2) Compound 2 at 1 μM was incubated with WT human α-thrombin (80 nM) or the active site mutant protein S195A at room temperature for 10 min. Then, fluorescence measurements (excitation 280 nm, emission 340 nm) were recorded in kinetic mode.

[21] = molecular target: T6, thrombin mutant S195A (Homo sapiens, UniProt P00734, S568A); experiment: as above; conditions: 1 μM compound, excitation 280 nm, emission 340 nm
T6 construct: made in house; host or cells: E. coli
Protocol: as §2

[22] = read-out: Cmax EC50 (peak height)
[23] = read-out: ETP EC50 (endogenous thrombin potential)

Row | Compound | IC50 [19] [µM] | IC50 [1] [µM] | IC50 [2] [µM] | IC50 [3] [µM] | CT2x in aPTT assay (concentration to double the clotting time) [5] [µM] | IC50 [7] [µM] | IC50 [8] [µM] | EC50 [9, 22] [µM] | EC50 [9, 23] [µM] | IC50 [10] [µM] | IC50 [11] [µM] | further results
1 | CC1CNc2c(cccc2S(=O)(=O)N[C@@H](CCCNC(=N)N)C(=O)N2CC[C@@H](C)C[C@@H]2C(=O)O)C1 (some centres unmarked) [Argatroban] | – | > 50 | > 50 | > 50 | 0.27 ± 0.15 | > 50 | > 50 | 0.27 ± 0.05 | 0.34 ± 0.11 | > 50 | > 50 | IC50 [4]: > 50 µM; CT2x in PT assay (concentration to double the clotting time) [6]: 0.60 ± 0.14 µM
2 | COc1ccccc1C(=O)n1nc(C2CCNCC2)c(F)c1NCc1ccc(Cl)s1 [Compound 1] | – | > 50 | > 50 | 13.8 ± 2.8 | > 100 | 8.3 ± 3.4 | 0.7 ± 0.15 | – | – | 2.8 ± 0.2 | > 50 | AUC [12]: 88 ng·h/mL; C0 [12]: 260 ng/mL; Vd [12]: 30 L/kg; clearance [12]: 183 mL/min/kg; half-life [12]: 114 min; Ki [13]: 94 ± 57 µM; half-life at 1 μM ([14]; CD-1 mouse liver microsome 0.5 mg/mL): 20 ± 2 min; half-life at 1 μM ([14]; Human liver microsome 0.5 mg/mL): 110 min; half-life at 1 μM ([14]; SD rat liver microsome 0.5 mg/mL): 8 ± 1.6 min; Ki [15]: 5.5 ± 4 µM; Ki [16]: 0.8 ± 0.6 µM; half-life at 20 μM ([17]; CD-1 mouse plasma): 14 ± 1 min; half-life at 20 μM ([17]; Human plasma): 89 ± 9 min; half-life at 20 μM ([17]; SD rat plasma): 25 min; stability in buffer in the absence of thrombin [18]: stable over the entire course of the experiment
3 | [H]/N=C(/N)c1ccc(NCc2nc3cc(C(=O)N(CCC(=O)O)c4ccccn4)ccc3n2C)cc1 [Dabigatran] | – | > 50 | 41.3 ± 7.6 | 40.7 ± 13.3 | – | – | 8.4 ± 2.6 | 0.24 ± 0.08 | 0.21 ± 0.04 | 4.2 ± 1.5 | > 50 | –

Further lines, with some results ahead:

Row | IC50 [19] [µM] | Compound | IC50 [1] [µM] | IC50 [2] [µM] | IC50 [3] [µM] | CT2x in aPTT assay (concentration to double the clotting time) [5] [µM] | IC50 [7] [µM] | IC50 [8] [µM] | EC50 [9, 22] [µM] | EC50 [9, 23] [µM] | IC50 [10] [µM] | IC50 [11] [µM] | further results
4 | 0.08 | CN(C)c1cccc2c(S(=O)(=O)Nc3ccc(C(=O)n4nc(C5CCNCC5)c(F)c4NCc4ccc(Cl)s4)cc3)cccc12 [Compound 2] | – | – | – | – | – | – | – | – | – | – | change of tryptophan fluorescence on incubation with thrombin WT [20]: time-dependent change in the fluorescence intensity at 340 nm; change of tryptophan fluorescence on addition to thrombin S195A [21]: failed to produce any change in fluorescence
5 | > 100 | Fc1c(C2CCNCC2)n[nH]c1NCc1ccc(Cl)s1 [Compound 3] | – | – | – | – | – | – | > 100 | > 100 | – | – | Tmax EC2x (concentration necessary to shift the time to peak 2-fold) [9]: > 100 µM

Reference: PMC6072017, “Reversible covalent direct thrombin inhibitors” (PLoS ONE, 2018)
